Data published in patent US20260014122A1, “DRUG FOR LOWERING BLOOD LDL CHOLESTEROL” (KOWA COMPANY, LTD., priority 2022, published 2026).

Test system: patient of a nonalcoholic fatty liver disease (NAFLD)
Assay: Effect of compound A on blood LDL-C and cholesterol synthesis/absorption markers in NAFLD patients, compared with placebo
Format: in vivo, human
Details: for fasting blood LDL-C concentration (rate of change from baseline): FIG. 1
[1] = NAFLD patients, 0.4 mg per day oral, 8 weeks, vs placebo, FIG. 3

Compound: CC[C@@H](Oc1cccc(CN(CCCOc2ccc(OC)cc2)c2nc3ccccc3o2)c1)C(=O)O [compound A, (R)-2-[3-[[N-(benzoxazol-2-yl)-N-3-(4-methoxyphenoxy)propyl]aminomethyl]phenoxy]butyric acid]
- fasting blood LDL-C concentration (rate of change from baseline) (NAFLD patients who did not take any existing agent for reducing LDL-C, 0.4 mg per day oral, 12 weeks, vs placebo): reduced a fasting blood LDL-C concentration as compared to the placebo administration
- fasting blood LDL-C concentration (rate of change from baseline) (NAFLD patients, entire group including patients taking an existing agent for reducing LDL-C, 0.4 mg per day oral (0.2 mg twice a day), 12 weeks, vs placebo): reduced a fasting blood LDL-C concentration as compared to the placebo administration
- fasting blood concentration of campesterol (absorption marker for cholesterol), rate of change from baseline [1]: reduced the fasting blood concentration of sitosterol and the fasting blood concentration of campesterol
- fasting blood concentration of lathosterol (synthesis marker for cholesterol), rate of change from baseline [1]: reduced the fasting blood concentration of lathosterol
- fasting blood concentration of sitosterol (absorption marker for cholesterol), rate of change from baseline [1]: reduced the fasting blood concentration of sitosterol
- reducing effect on LDL-C for each initial value of the blood LDL-C (NAFLD patients, 0.4 mg per day oral, 12 weeks, FIG. 2): became larger as the blood LDL-C concentration before the administration thereof increased
